This note sets out measurements from ChEMBL document CHEMBL1201862, “PubChem BioAssay data set” (2004).

SMILES strings stand for the structures.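 Where inhibition never reached the appropriate level, the endpoint shown equals the highest concentration tested. Otherwise, values were interpolated linearly from a five-concentration, 48-hour dose response in 96-well plates. GI50 is the concentration that inhibits growth by half.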 Active and inactive are the calls of the source. No stated cut-off is given here; in the data, active = GI50 up to about 1.1 µM and inactive = higher.

Common to all, as to experiment: inhibition of tumour cell growth, NCI panel, 48 h
For experiment [1], the system named is DMS-273.
Experiment [2] concerns LXFL 529.
The subject of experiment [3] is M19-MEL.
Experiment [4] deals with SNB-78.
Experiment [5] relates to HOP-18.
For experiment [6], the system named is DLD-1.
The subject of experiment [7] is DMS-114.
Experiment [8] has as its system XF498.
Experiment [9] concerns RXF 631.

For the molecule `Cc1ccc(NC(=O)C(=O)CC(=O)c2c(C)[n+]([O-])c3ccccc3[n+]2[O-])cc1C`, the GI50 in [1] was > 100 µM (inactive); in experiment [2], > 100 µM (inactive); in [3] it was 91.2 µM (inactive); in [4], > 100 µM (inactive); in experiment [5], 48.9 µM (inactive).

As to `CC1=C(C(=O)Nc2c(C)cccc2C)C(c2ccccc2Cl)C(C(=O)Nc2c(C)cccc2C)=C(C)N1`, the GI50 in [1], in experiment [2], in experiment [3], in [4], in experiment [6] and in [7] was > 100 µM (inactive) throughout. Also, the GI50 in experiment [8] was > 100 µM (inactive).

For the molecule `CN(C)CCCn1c2c3ccccc3ccc2c2oc(=O)c3ccccc3c21`, the GI50 in experiment [1] is 1.49 µM (inactive); in [2], 3.56 µM (inactive); in [3], 3.13 µM (inactive); in experiment [4], 13.6 µM (inactive); in experiment [5], 16.6 µM (inactive); in experiment [6], 1.47 µM (inactive). The GI50 in experiment [7] is 1.77 µM (inactive); in [8], 3.85 µM (inactive).

Take `O=C1NC(=S)NC(=O)C1=C(O)Nc1ccccc1`: the GI50 is 28.7 µM (inactive) in experiment [1]; 37.2 µM (inactive) in [3]; 44.1 µM (inactive) in [4]; 42.4 µM (inactive) in experiment [5]; 36.6 µM (inactive) in experiment [6]; 25.8 µM (inactive) in [7].

In the case of `CC12CCCCC1(C)C2Sc1ccccc1` (configuration not stated), the GI50 in experiment [1] is 47.2 µM (inactive); in experiment [9], 51.5 µM (inactive); in [2], 63.8 µM (inactive); in [3], 35.9 µM (inactive); in experiment [4] it was > 44.3 µM (inactive); in [5], 63.1 µM (inactive). Also, the results for the GI50 in experiment [6], in experiment [7] and in experiment [8] were 61.2 µM (inactive), 30.7 µM (inactive) and 27.3 µM (inactive), respectively.

For the molecule `ClC(Cl)[Si]12OCCN(CCO1)CCO2`, the GI50 in [1], in [9], in [2], in [4], in [5] and in experiment [6] was > 100 µM (inactive) throughout. Further, the GI50 in experiment [7] was > 100 µM (inactive).

Consider `O=C1/C(=C\c2ccccc2)CN(C(=O)CCN2CCCCC2)C/C1=C/c1ccccc1`, for which the GI50 in experiment [1] is 1.44 µM (inactive); in experiment [9] it was 1.47 µM (inactive); in experiment [2], 1.32 µM (inactive); in experiment [3], 0.658 µM (active); in experiment [4] it was 2.54 µM (inactive); in experiment [5], 3.03 µM (inactive). The GI50 is 1.19 µM (inactive) in [6], 1.23 µM (inactive) in experiment [7] and 1.73 µM (inactive) in [8].

For the molecule `O[C@H]1[C@H](O)[C@@H](O)CN2CC[C@H](O)[C@H]12` [CASTANOSPERMINE], the GI50 in experiment [1] was > 100 µM (inactive); in experiment [3], 32.8 µM (inactive); in experiment [4], > 100 µM (inactive); in [5], > 100 µM (inactive); in experiment [6] it was > 100 µM (inactive); in experiment [7] it was > 100 µM (inactive). For the same molecule, the GI50 in experiment [8] was > 100 µM (inactive).

Regarding `O=C(O)/C(=C/c1c(O)ccc2ccccc12)c1csc(-c2nc(/C(=C\c3c(O)ccc4ccccc34)C(=O)O)cs2)n1`, the GI50 in [2] was 13.6 µM (inactive); in experiment [3], 6.17 µM (inactive); in experiment [4] it was 13.6 µM (inactive); in experiment [6], 12 µM (inactive); in experiment [7] it was 10 µM (inactive).

For `Cn1c(-c2ccccc2)cc(-c2cccs2)c1-c1cccs1`, the GI50 in experiment [1] was > 100 µM (inactive); in experiment [3], 83.2 µM (inactive); in experiment [4] it was > 100 µM (inactive); in [5] it was > 100 µM (inactive); in experiment [6], > 100 µM (inactive); in experiment [7] it was > 52 µM (inactive). In addition, in [8], the GI50 was > 100 µM (inactive).

As to `Cc1ccccc1NC(=O)C1C(=O)N(c2ccccc2C)C(=O)/C1=N\NC(N)=O` (configuration not stated), the GI50 in experiment [1] is > 100 µM (inactive); in experiment [2], > 100 µM (inactive); in experiment [3], > 100 µM (inactive); in experiment [4] it was > 100 µM (inactive); in experiment [5] it was 92.3 µM (inactive); in experiment [6], > 100 µM (inactive). In experiment [7], the GI50 was > 100 µM (inactive).

Take `COc1ccc2[nH]c(=O)cc(C)c2c1[N+](=O)[O-]`: the GI50 was > 100 µM (inactive) in experiment [1]; > 100 µM (inactive) in experiment [9]; > 100 µM (inactive) in experiment [2]; > 100 µM (inactive) in experiment [3]; > 100 µM (inactive) in experiment [4]; 84.1 µM (inactive) in experiment [6]. Moreover, the GI50 in experiment [7] and in experiment [8] was > 100 µM (inactive) throughout.

With `C(=N\CC/N=C/c1cccc2ccccc12)/c1cccc2ccccc12`, the GI50 in experiment [1], in experiment [2], in [3], in [4], in experiment [5] and in [6] was > 100 µM (inactive) in each case. The GI50 in [7] and in [8] was > 100 µM (inactive) throughout.

For the molecule `C=CCCC1(C)CCCNC1=S` (configuration not stated), the GI50 in experiment [1], in experiment [5], in experiment [6], in experiment [7] and in experiment [8] was > 100 µM (inactive) throughout.

As for `CCC(C(=O)O)c1ccc(OCc2ccccc2)cc1` (configuration not stated), the GI50 in experiment [1], in [2], in [4], in experiment [6], in experiment [7] and in experiment [8] was > 100 µM (inactive) in each case.

As to `C=CCC1OC(C)(C)Oc2ccc(OCOCCOC)cc21` (configuration not stated), the GI50 in experiment [2] and in [7] was > 100 µM (inactive) in each case.

For the molecule `Cc1cc2ncn(-c3nc4ccccc4nc3C(C#N)S(C)(=O)=O)c2cc1C` (configuration not stated), the GI50 in [1], in experiment [2], in experiment [3], in experiment [4], in experiment [6] and in experiment [7] was > 100 µM (inactive) each time. Also, the GI50 in experiment [8] was > 100 µM (inactive).

In the case of `CCN(CC)CCCCC1CCN(CC(=O)N2c3cc(Cl)ccc3NC(=O)CC2C)CC1` (configuration not stated), the GI50 in experiment [1], in [2], in experiment [3], in [5] and in experiment [6] was > 100 µM (inactive) throughout.

In the case of `O=C(c1ccco1)N(C(=S)N1CCN(c2ccccn2)CC1)c1ccccc1`, the GI50 in experiment [1], in experiment [2], in [3], in experiment [4], in [5] and in [6] was > 100 µM (inactive) throughout. In addition, the values for the GI50 in [7] and in [8] were 66.1 µM (inactive) and 60.7 µM (inactive), respectively.

As for `O=C1c2cccc(NCCNCCO)c2C(=O)c2cccc(NCCNCCO)c21`, the GI50 in experiment [1] is 2.91 µM (inactive); in [9] it was 3.13 µM (inactive); in experiment [2] it was 0.643 µM (active); in [4], 1.52 µM (inactive); in experiment [5], 2.15 µM (inactive); in experiment [6], 3.18 µM (inactive). The GI50 in [7] is 0.368 µM (active); in experiment [8], 0.556 µM (active).

Turning to `NC1=NN(c2ccccc2)C(=O)C1C(=O)C(=O)Nc1ccccc1` (configuration not stated), the GI50 in [1], in [2], in [3], in [4], in experiment [5] and in [6] was > 100 µM (inactive) throughout. The GI50 in experiment [7] and in experiment [8] was > 100 µM (inactive) throughout.

For `CCOc1ccccc1NC(=O)C1=C(C)NC(C)=C(C(=O)Nc2ccccc2OCC)C1c1ccc([N+](=O)[O-])cc1`, the GI50 is 71.4 µM (inactive) in experiment [1]; > 100 µM (inactive) in experiment [9]; 70.5 µM (inactive) in experiment [2]; > 100 µM (inactive) in experiment [3]; > 100 µM (inactive) in experiment [4]; > 100 µM (inactive) in experiment [5]. In addition, the results for the GI50 in experiment [6] and in experiment [7] were > 100 µM (inactive) and 65.9 µM (inactive), respectively.

In the case of `CCCCNC(=O)C1C(=O)N(CCCC)C(=O)/C1=N\N` (configuration not stated), the GI50 in [1], in [9], in experiment [2], in [3], in experiment [4] and in experiment [5] was > 100 µM (inactive) in each case. In addition, the GI50 in [7] and in experiment [8] was > 100 µM (inactive) each time.

With `O=C1c2cccc(NCCCNCCO)c2C(=O)c2cccc(NCCCNCCO)c21`, the GI50 in experiment [1] is 2.31 µM (inactive); in experiment [4], 3.46 µM (inactive); in [6], 2.34 µM (inactive).

With `O=C(Nc1cccc2c1[nH]c1c(-c3ccccc3)nccc12)c1ccccc1[N+](=O)[O-]`, the GI50 in [1] is 4.88 µM (inactive); in experiment [9] it was 17.9 µM (inactive); in experiment [2], 25.5 µM (inactive); in [4] it was 30.7 µM (inactive); in experiment [5], > 100 µM (inactive).

For the molecule `COC(=O)C1(O)CC(=O)CCC1c1ccc(OC)cc1` (configuration not stated), the GI50 in [1], in experiment [9], in [4], in experiment [5], in [6] and in experiment [7] was > 100 µM (inactive) each time.
